Earlier results as cited in patent US20100292280A1, “ANTI-PYRETIC VASODILATORS” (priority 2007, published 2010).

How the values were obtained:
[1] = test system: forearm and dorsum of the foot skin of healthy subjects and diabetic neuropathic patients
[2] = test system: healthy adults; conditions: ingestion of 5 mg niacin per Kg body weight
[3] = test system: skin; conditions: doses of niacin over 50 mg

Row | SMILES | vasodilatory response compared to the acetylcholine and sodium nitroprusside responses ([1]; control group, foot) | vasodilatory response, comparison between agents ([1]; control group, forearm) | maximal vasodilatory response, comparison between agents ([1]; diabetic patients, forearm and foot level) | time after application at which vasodilation was present ([1]; topical 1% methyl nicotinate) [min] | time of decline of vasodilation to pre-application levels ([1]; topical 1% methyl nicotinate) [min] | time of peak vasodilation ([1]; topical 1% methyl nicotinate) [min] | duration of the decrease of core body temperature [2] | time at which the sharp decrease in body temperature begins, after oral ingestion [2] | time of the peak of continuous temperature reduction, after ingestion [2] | undesired side effect reported by a significant portion of the subjects [2] | decrease of core body temperature ([2]; on average) [°C] | duration of flushing of the skin [3]
1 | COC(=O)c1cccnc1 [methyl nicotinate] | higher | similar | similar | 5 | 120 | 15 to 30 | – | – | – | – | – | –
2 | O=C(O)c1cccnc1 [niacin, nicotinic acid] | – | – | – | – | – | – | about 70 minutes | about 20 minutes | about 50 minutes | sever hypotension | 0.44 | about 60 minutes
